Laboratory results reported in patent publication US20210060158A1, “AGONIST OF ARYL HYDROCARBON RECEPTOR FOR USE IN CANCER COMBINATION THERAPY” (INSTITUT CURIE, priority 2017, published 2021).

Key:
[1] = system: IRF4 expression in CD14+ monocytes; experiment: IRF4 and MAFB expression in monocytes after 3 h of culture, RT-qPCR; format: cell-based, human; conditions: 3 h culture, with IL-4 (FICZ: with IL-4 and TNF-α)
Method: (§1) FIG. 2: AHR is a molecular switch for mo-DC versus mo-Mac differentiation. (A-B) CD14^+ monocytes were infected at day 0 with lentivirus containing sh RNA against AHR, or control sh RNA. After 5 days of culture, cells were analyzed by Immuno Blot (A) or by flow cytometry (B). (A) Silencing quantified based on Immuno Blot stainings. (B) Proportions of DC and macrophages in the culture at day 5. Each symbol represents an individual donor (n=6 in 3 independent experiments). *p<0.05. (C) Monocytes were cultured with MCSF, IL-4 and TNF-α for 5 days, in the presence of various concentrations of FICZ (AHR agonist) or SR1 (AHR inhibitor). Proportions of DC and macrophages at day 5. […] (D-E) CD14^+ monocytes were analyzed directly after isolation, or were cultured for 3h in medium alone or with various combinations of MCSF, IL-4, TNF-α, FICZ or SRI. (D) Relative expression of IRF4 and MAFB measured by RT-qPCR. […] (E) Expression of IRF4 and MAFB at the single cell level was measured by fluorescent in situ hybridization coupled to flow cytometry. […]
To decipher how AHR shapes monocyte fate, we assessed IRF4 and MAFB expression in monocytes after 3 h of culture with various combinations of M-CSF, IL-4, TNF-α, SR1 and FICZ (FIG. 2D). We also analyzed the expression of CYP1A1, a known direct target of AHR (Stockinger et al., 2014), as a control for AHR activation. […]

CD14+ monocytes = experiment: Human CD14+ monocyte differentiation into mo-DC versus mo-Mac (culture with M-CSF, IL-4 and TNF-α, flow cytometry at day 5); format: cell-based; conditions: monocytes cultured with M-CSF, IL-4 and TNF-α for 5 days, various doses of compound
Method: as §1
FIG. 3: AHR acts on mo-DC differentiation through BLIMP-1. […] PRDM1 expression measured by RT-qPCR. […] Total cells were lyzed at different days and analyzed by Immuno Blot. […] After 5 days of culture, cells were analyzed by Immuno Blot (C) or by flow cytometry (D-E). (C) Silencing quantified based on Immuno Blot stainings. […]

[2] = system: dermal mo-DC and MHC class II+ macrophages; experiment: Skin mo-DC and macrophage proportions in mice fed I3C-supplemented diet; format: in vivo, mouse; conditions: supplemented diet versus control diet
Text: FIG. 4: AhR is involved in mo-DC differentiation in vivo in the mouse. (A-C) Ear skin from individual AhR^-/- mice or WT littermates (A-B), or C57BL/6 mice fed with an experimental diet supplemented or not with indole-3-carbinol […]) (C), was digested to prepare single-cell suspensions. After gating on live CD45^+CD3^-NK1.1^-CD19^-Ly6G^-CD24^- CD11b^+ cells, cells were separated into 5 subsets based on the expression of Ly6C, CD64, MHC II and CCR2. (A) One representative AhR^-/- and WT mouse is shown. (B-C) Proportions of monocytes, early mo-DC, mo-DC, MHC II^+ macrophages and resident MHC II^- macrophages among Ly6C^+ or CD64^+ cells. Each symbol represents an individual mouse (B n=9 in 2 independent experiments, C n=12 in 2 independent experiments).*p<0.05, **p<0.01. (D-E) Cells from the peritoneal lavage were analyzed by flow cytometry. After gating on live CD115^+CD11b^+ cells, cells were separated into MHCII^+CD226^+ cells and ICAM2^+MHCII^- cells. (D) Cell-sorted cells were analyzed after cytospin and Giemsa/May-Grünwald staining. Bar=10 μm. Representative of 2 independent experiments. (E) C57BL/6 mice fed with an experimental diet supplemented or not with […], and treated or not with a cocktail of antibiotics. […] To address the physiological relevance of our findings, we analyzed the role of AhR in mo-DC and mo-Mac differentiation in vivo in the mouse. […]

peritoneal mo-DC = experiment: Peritoneal MHCII+CD226+ mo-DC in antibiotics-treated mice fed I3C-supplemented or control diet; format: in vivo, mouse; conditions: I3C-supplemented versus control diet, peritoneal lavage
Text: FIG. 4: AhR is involved in mo-DC differentiation in vivo in the mouse. (A-C) Ear skin from individual AhR^-/- mice or WT littermates (A-B), or C57BL/6 mice fed with an experimental diet supplemented or not with indole-3-carbinol […]) (C), was digested to prepare single-cell suspensions. After gating on live CD45^+CD3^-NK1.1^-CD19^-Ly6G^-CD24^- CD11b^+ cells, cells were separated into 5 subsets based on the expression of Ly6C, CD64, MHC II and CCR2. (A) One representative AhR^-/- and WT mouse is shown. (B-C) Proportions of monocytes, early mo-DC, mo-DC, MHC II^+ macrophages and resident MHC II^- macrophages among Ly6C^+ or CD64^+ cells. Each symbol represents an individual mouse (B n=9 in 2 independent experiments, C n=12 in 2 independent experiments).*p<0.05, **p<0.01. (D-E) Cells from the peritoneal lavage were analyzed by flow cytometry. After gating on live CD115^+CD11b^+ cells, cells were separated into MHCII^+CD226^+ cells and ICAM2^+MHCII^- cells. (D) Cell-sorted cells were analyzed after cytospin and Giemsa/May-Grünwald staining. Bar=10 μm. Representative of 2 independent experiments. […] To address whether the decrease of peritoneal mo-DC upon antibiotics treatment was AhR-dependent, we fed antibiotics-treated mice with a […]-supplemented or control diet, and analyzed cells from the peritoneal lavage (FIG. 3E).

Treg cells = experiment: Induction of functional Treg cells upon administration
Text: The impact of a given AHR agonist on Treg cells may be estimated by exposing purified T cells (typically CD4^+ T cells) in vitro with the said agonist. Treg cells are characterized by expression of the transcription factor Foxp3.

Structure (SMILES) | IL-4-induced IRF4 expression [1] | mo-DC development / proportions at day 5 (CD14+ monocytes) | mo-Mac development / proportions at day 5 (CD14+ monocytes) | MHC class II+ macrophages in the skin [2] | mo-DC in the skin [2] | peritoneal mo-DC differentiation in antibiotics-treated mice (peritoneal mo-DC) | induction of functional Treg cells (Treg cells)
CC(C)n1cnc2c(NCCc3ccc(O)cc3)nc(-c3csc4ccccc34)nc21 [SR1, stemregenin-1] | inhibited | decreasing | increased | – | – | – | –
OCc1c[nH]c2ccccc12 [I3C, indole-3-carbinol] | – | – | – | decreased | significantly increased | restored mo-DC differentiation in antibiotics-treated mice almost up to normal proportions | does not induce functional Treg cells
